System: iron
Assay: X-ray fluorescence microscopy, elemental mapping of iron
Format: in vivo, Caenorhabditis elegans
Parameters: areal density of iron, Mean Diff. / total body iron, 75% Percentile / total body iron, Maximum / total body iron, Mean / total body iron, Minimum / total body iron, 25% Percentile / total body iron, Median / total body iron, Mean Diff.: unit not given here
Conditions: for areal density iron, 25% Percentile / areal density iron, 75% Percentile / areal density iron, Maximum / areal density iron, Mean / areal density iron, Median / areal density iron, Minimum / total body iron, 25% Percentile / total body iron, 75% Percentile / total body iron, Maximum / total body iron, Mean / total body iron, Median / total body iron, Minimum: 250 μM SIH or 200 μM Lip-1; for areal density of iron with aging: Tables 11 and 12; for total body iron, 25% Percentile / total body iron, 75% Percentile / total body iron, Maximum / total body iron, Mean / total body iron, Median / total body iron, Minimum: per worm
Procedure: Specimens were prepared for XFM using previously described protocols. Briefly, adult C. elegans were removed from NGM, washed four times in excess S-basal (0.1 M NaCl; 0.05 M KHPO4 at pH 6.0), briefly in ice-cold 18 MΩ resistant de-ionized H2O (Millipore) and twice in ice-cold CH3COONH4 (1.5% w/v). Samples were transferred onto 0.5 μm-thick silicon nitride (Si3N4) window (Silson), excess buffer wicked away and then the slide was frozen in liquid nitrogen (N2)-chilled liquid propane using a KF-80 plunge freezer (Leica Microsystems). The samples were lyophilised overnight at −40° C. and stored under low vacuum until required.
The distribution of metals was mapped at the X-ray Fluorescence Microscopy beamline at the Australian Synchrotron using the Maia detector system. The distribution of elements with atomic number<37 were mapped using an incident beam of 15.6 keV X-rays. This incident energy allowed clear separation of X-ray fluorescence (XRF) peaks from the relatively intense elastic and inelastic scatter. The incident beam (^˜1.71×10^9 photons s^−1) was focussed to approximately 2×2 μm^2(H×V, FWHM) in the sample plane and the specimen was continuously scanned through focus (1 mm sec^−1). The resulting XRF was binned in 0.8 jim intervals in both the horizontal and vertical giving virtual pixels spanning 0.64 jim^2 of the specimen probed with a dwell time of […]. XRF intensity was normalized to the incident beam flux monitored with a nitrogen filled ionization chamber with a 27 cm path length placed upstream of the focusing optics. Three single-element thin metal foils of known areal density (Mn 18.9 jig cm^−2, Fe 50.1 jig cm^−2 and Pt 42.2 jig cm^−2, Micromatter, Canada) were used to calibrate the relationship between fluorescence flux at the detector and elemental abundance. Dynamic Analysis, as implemented in GeoPIXE 7.3 (CSIRO), was used to deconvolve the full XRF spectra at each pixel in the scan region to produce quantitative elemental maps. This procedure includes a correction for an assumed specimen composition and thickness, in this case 30 jim of cellulose. Though unlikely to exactly match the actual sample characteristics, deviations from these assumptions are not significant for the results presented in this study as the effects of beam attenuation and self-absorption on calcium and iron XRF are negligible for a dried specimen of this type and size.
Analysis of elemental XRF maps was performed using a combination of tools native to GeoPIXE and ImageJ. Incident photons inelastically scattered (Compton scatter) from the sample detail the extent and internal structure of individual C. elegans. The differential scattering power of the specimens and substrate allowed individual animals (or parts thereof) to be identified as regions of interest (ROI) facilitating analysis of elemental content on a ‘per worm’ basis. This segmentation of each elemental map was achieved using the histogram of pixel intensities from Compton maps to locate the clusters within the image. ROIs composed of <10,000 pixels were deemed to be so small that their elemental content was not reflective of the elemental content of whole animals and so these were excluded from the analysis. The ‘non-worm’ region of each scan was used to calculate the value specimen elemental content was distinguishable from background noise, i.e. the critical value. The background corrected elemental maps were used to establish the areal densities and the total mass of each element associated with individual ROIs.

[1] = Day 4 Control vs. Day 4 treated (control minus treated)
[2] = Day 4 treated vs. Day 8 treated, same treatment
[3] = Day 8 Control vs. Day 8 treated (control minus treated)

Row | Structure (SMILES) | areal density iron, 25% Percentile (Day 4) | areal density iron, 75% Percentile (Day 4) | areal density iron, Maximum (Day 4) | areal density iron, Mean (Day 4) | areal density iron, Median (Day 4) | areal density iron, Minimum (Day 4) | areal density of iron, Mean Diff. [1] | total body iron, Mean Diff. [1] | areal density of iron, Mean Diff. [2] | total body iron, Mean Diff. [2] | areal density iron, 25% Percentile (Day 8) | areal density iron, 75% Percentile (Day 8) | areal density iron, Maximum (Day 8) | areal density iron, Mean (Day 8) | areal density iron, Median (Day 8) | areal density iron, Minimum (Day 8) | areal density of iron, Mean Diff. [3] | total body iron, Mean Diff. [3] | areal density of iron with aging | total body iron, 25% Percentile (Day 4) | other results
1 | Clc1cccc(CNC2=Nc3ccccc3NC23CCNCC3)c1 [Lip-1, N-[(3-chlorophenyl)methyl]-spiro[piperidine-4,2′(1′H)-quinoxalin]-3′-amine] | 630.3 pg μm^−2 | 732.2 pg μm^−2 | 851.8 pg μm^−2 | 698.5 pg μm^−2 | 711.4 pg μm^−2 | 590.5 pg μm^−2 | −32.28 | 12.74 | −123.1 | −51.79 | 726.5 pg μm^−2 | 892.4 pg μm^−2 | 1143 pg μm^−2 | 821.6 pg μm^−2 | 800.5 pg μm^−2 | 644 pg μm^−2 | −1.229 | −10.7 | did not alter iron density | 91.34 | total body iron, 75% Percentile (Day 4): 129.5; total body iron, Maximum (Day 4): 148.6; total body iron, Mean (Day 4): 113.3; total body iron, Median (Day 4): 114.6; total body iron, Minimum (Day 4): 71.51; total body iron, 25% Percentile (Day 8): 128.9; total body iron, 75% Percentile (Day 8): 189.6; total body iron, Maximum (Day 8): 277.9; total body iron, Mean (Day 8): 165.1; total body iron, Median (Day 8): 157.2; total body iron, Minimum (Day 8): 100
2 | O=C(N/N=C/c1ccccc1O)c1ccncc1 [SIH, Salicylaldehyde isonicotinoyl hydrazone] | 298.3 pg μm^−2 | 357.3 pg μm^−2 | 412.1 pg μm^−2 | 321.8 pg μm^−2 | 304.4 pg μm^−2 | 267.1 pg μm^−2 | 344.4 | 57.71 | −112.9 | −70.26 | 381.9 pg μm^−2 | 501.9 pg μm^−2 | 558 pg μm^−2 | 434.7 pg μm^−2 | 408.9 pg μm^−2 | 324.2 pg μm^−2 | 385.6 | 15.8 | dramatically reduced | 61.28 | areal density of iron, Mean Diff. (Day 4 SIH vs. Day 4 Lip-1): −376.6; total body iron, Mean Diff. (Day 4 SIH vs. Day 4 Lip-1): −44.97; total iron load (Day 8): on par with the untreated control group; areal density of iron, Mean Diff. (Day 8 SIH vs. Day 8 Lip-1): −389.9; total body iron, Mean Diff. (Day 8 SIH vs. Day 8 Lip-1): −26.49; total body iron, 75% Percentile (Day 4): 71.8; total body iron, Maximum (Day 4): 98.92; total body iron, Mean (Day 4): 68.37; total body iron, Median (Day 4): 66.78; total body iron, Minimum (Day 4): 41.07; total body iron, 25% Percentile (Day 8): 117.5; total body iron, 75% Percentile (Day 8): 169.5; total body iron, Maximum (Day 8): 202; total body iron, Mean (Day 8): 138.6; total body iron, Median (Day 8): 127.5; total body iron, Minimum (Day 8): 74.16
